{
  "source": "patent US9944666B2",
  "about": "“Compounds that are S1P modulating agents and/or ATX modulating agents” (BIOGEN MA INC., priority 2012, dated 2018)",
  "data": [
    {"biological_target": "T1, Human ATX protein (Homo sapiens, UniProt Q13822)", "T1 construct": "made in house", "assay": "ATX biochemical FRET assay with FS-3 substrate", "conditions": "FS-3 2 μM, ATX 1.0 μg/mL, room temperature 2 hours, fluorescence 485/538 nm", "method_in_brief": "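Purified human ATX (1.0 μg/mL final) preincubated with compound 30 min at room temperature in Tris pH 7.4 buffer with NaCl, KCl, CaCl2, MgCl2 and 1 mg/mL fatty acid-free BSA. FS-3 added to 2 μM final; 2 h at room temperature in the dark, fluorescence at ex 485/em 538 nm.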", "units": {"IC50": "nM"}, "values": [
      {"smiles": "CC(c1ccc2c(C(F)(F)F)c(O[C@H]3CC[C@@H](C(C)(F)F)CC3)ccc2c1)N1C2CCCC1CC(C(=O)O)C2", "note": "(stereo partly drawn) [Example 217, 9-(1-(6-((cis-4-(1,1-difluoroethyl)cyclohexyl)oxy)-5-(trifluoromethyl)naphthalen-2-yl)ethyl)-9-azabicyclo[3.3.1]nonane-3-carboxylic acid]", "IC50": "≤ 100"},
      {"smiles": "C[C@H]1CC[C@@H](Oc2ccc3cc(C(=O)N4C5CCCC4CC(C(=O)O)C5)ccc3c2C#N)CC1", "note": "(stereo partly drawn) [Example 218, 9-(5-cyano-6-((cis-4-methylcyclohexyl)oxy)-2-naphthoyl)-9-azabicyclo[3.3.1]nonane-3-carboxylic acid]", "IC50": "≤ 100"},
      {"smiles": "C[C@H]1CC[C@@H](Oc2ccc3cc(C(=O)N4C5CCC4CC(C(=O)O)C5)ccc3c2C#N)CC1", "note": "(stereo partly drawn) [Example 219, 8-(5-cyano-6-((cis-4-methylcyclohexyl)oxy)-2-naphthoyl)-8-azabicyclo[3.2.1]octane-3-carboxylic acid]", "IC50": "≤ 100"},
      {"smiles": "CCC(c1ccc2c(C#N)c(O[C@H]3CC[C@@H](CC)CC3)ccc2c1)N1C2CCC1CC(C(=O)O)C2", "note": "(stereo partly drawn) [Example 220, 8-(1-(5-cyano-6-((cis-4-ethylcyclohexyl)oxy)naphthalen-2-yl)propyl)-8-azabicyclo[3.2.1]octane-3-carboxylic acid]", "IC50": "≤ 100"},
      {"smiles": "CC[C@H]1CC[C@@H](Oc2ccc3cc(C(=O)N4C5CCCC4CC(C(=O)O)C5)ccc3c2C#N)CC1", "note": "(stereo partly drawn) [Example 221, 9-(5-cyano-6-((cis-4-ethylcyclohexyl)oxy)-2-naphthoyl)-9-azabicyclo[3.3.1]nonane-3-carboxylic acid]", "IC50": "≤ 100"},
      {"smiles": "CC[C@H]1CC[C@@H](Oc2ccc3cc(C(=O)N4C5CCC4CC(C(=O)O)C5)ccc3c2C(F)(F)F)CC1", "note": "(stereo partly drawn) [Example 222, 8-(6-((cis-4-ethylcyclohexyl)oxy)-5-(trifluoromethyl)-2-naphthoyl)-8-azabicyclo[3.2.1]octane-3-carboxylic acid]", "IC50": "≤ 100"},
      {"smiles": "CC[C@H]1CC[C@@H](Oc2ccc3cc(C(=O)N4C5CCC4CC(C(=O)O)C5)ccc3c2C#N)CC1", "note": "(stereo partly drawn) [Example 223, 8-(5-cyano-6-((cis-4-ethylcyclohexyl)oxy)-2-naphthoyl)-8-azabicyclo[3.2.1]octane-3-carboxylic acid]", "IC50": "≤ 100"},
      {"smiles": "CC[C@H]1CC[C@@H](Oc2ccc3cc(C(=O)N4C5CCCC4CC(C(=O)O)C5)ccc3c2C(F)(F)F)CC1", "note": "(stereo partly drawn) [Example 224, 9-(6-((cis-4-ethylcyclohexyl)oxy)-5-(trifluoromethyl)-2-naphthoyl)-9-azabicyclo[3.3.1]nonane-3-carboxylic acid]", "IC50": "≤ 100"},
      {"smiles": "CC(c1ccc2c(C#N)c(O[C@H]3CC[C@@H](C)CC3)ccc2c1)N1C2CCCC1CC(C(=O)O)C2", "note": "(stereo partly drawn) [Example 225, 9-(1-(5-cyano-6-((cis-4-methylcyclohexyl)oxy)naphthalen-2-yl)ethyl)-9-azabicyclo[3.3.1]nonane-3-carboxylic acid]", "IC50": "≤ 100"},
      {"smiles": "CCC(c1ccc2c(C#N)c(O[C@H]3CC[C@@H](C)CC3)ccc2c1)N1C2CCC1CC(C(=O)O)C2", "note": "(stereo partly drawn) [Example 226, 8-(1-(5-cyano-6-((cis-4-methylcyclohexyl)oxy)naphthalen-2-yl)propyl)-8-azabicyclo[3.2.1]octane-3-carboxylic acid]", "IC50": "≤ 100"},
      {"smiles": "CC[C@H]1CC[C@@H](Oc2ccc3cc(C(=O)N4C5CCCC4CC(C(=O)O)C5)ccc3c2Cl)CC1", "note": "(stereo partly drawn) [Example 227, 9-(5-chloro-6-((cis-4-ethylcyclohexyl)oxy)-2-naphthoyl)-9-azabicyclo[3.3.]nonane-3-carboxylic acid]", "IC50": "≤ 100"},
      {"smiles": "CC(c1ccc2c(C#N)c(O[C@H]3CC[C@@H](C(F)(F)F)CC3)ccc2c1)N1C2CCCC1CC(C(=O)O)C2", "note": "(stereo partly drawn) [Example 228, 9-(1-(5-cyano-6-(((1s,4s)-4-(trifluoromethyl)cyclohexyl)oxy)naphthalen-2-yl)ethyl)-9-azabicyclo[3.3.1]nonane-3-carboxylic acid]", "IC50": "≤ 100"},
      {"smiles": "N#Cc1c(O[C@H]2CC[C@@H](C(F)(F)F)CC2)ccc2cc(CN3C4CCCC3CC(C(=O)O)C4)ccc12", "note": "(stereo partly drawn) [Example 229, 9-((5-cyano-6-((cis-4-(trifluoromethyl)cyclohexyl)oxy)naphthalen-2-yl)methyl)-9-azabicyclo[3.3.1]nonane-3-carboxylic acid]", "IC50": "≤ 100"},
      {"smiles": "O=C(O)C1CC2CCCC(C1)N2Cc1ccc2c(C(F)(F)F)c(N[C@H]3CC[C@@H](C(F)(F)F)CC3)ccc2c1", "note": "(stereo partly drawn) [Example 230, 9-((5-(trifluoromethyl)-6-((cis-4-(trifluoromethyl)cyclohexyl)amino)naphthalen-2-yl)methyl)-9-azabicyclo[3.3.1]nonane-3-carboxylic acid]", "IC50": "≤ 100"},
      {"smiles": "COC(=O)C1CC2CCC(C1)N2C(=O)c1ccc2c(C(F)(F)F)c(N[C@H]3CC[C@@H](C(F)(F)F)CC3)ccc2c1", "note": "(stereo partly drawn) [Example 231, methyl 8-(5-(trifluoromethyl)-6-((cis-4-(trifluoromethyl)cyclohexyl)amino)-2-naphthoyl)-8-azabicyclo[3.2.1]octane-3-carboxylate]", "IC50": "≤ 250"},
      {"smiles": "CC(c1ccc2c(Cl)c(O[C@H]3CC[C@@H](C(F)(F)F)CC3)ccc2c1)N1C2CCC1CC(C(=O)O)C2", "note": "(stereo partly drawn) [Example 234, 8-(1-(5-chloro-6-((cis-4-(trifluoromethyl)cyclohexyl)oxy)naphthalen-2-yl)ethyl)-8-azabicyclo[3.2.1]octane-3-carboxylic acid]", "IC50": "≤ 100"},
      {"smiles": "CC(c1ccc2c(Cl)c(O[C@H]3CC[C@@H](C(F)(F)F)CC3)ccc2c1)N1C2CCCC1CC(C(=O)O)C2", "note": "(stereo partly drawn) [Example 235, 9-(1-(5-chloro-6-((cis-4-(trifluoromethyl)cyclohexyl)oxy)naphthalen-2-yl)ethyl)-9-azabicyclo[3.3.1]nonane-3-carboxylic acid]", "IC50": "≤ 100"},
      {"smiles": "CCC(c1ccc2c(Cl)c(O[C@H]3CC[C@@H](CC)CC3)ccc2c1)N1C2CCC1CC(C(=O)O)C2", "note": "(stereo partly drawn) [Example 236, 8-(1-(5-chloro-6-((cis-4-ethylcyclohexyl)oxy)naphthalen-2-yl)propyl)-8-azabicyclo[3.2.1]octane-3-carboxylic acid]", "IC50": "≤ 100"},
      {"smiles": "CCC(c1ccc2c(Cl)c(O[C@H]3CC[C@@H](CC)CC3)ccc2c1)N1C2CCCC1CC(C(=O)O)C2", "note": "(stereo partly drawn) [Example 237, 9-(1-(5-chloro-6-((cis-4-ethylcyclohexyl)oxy)naphthalen-2-yl)propyl)-9-azabicyclo[3.3.1]nonane-3-carboxylic acid]", "IC50": "≤ 250"},
      {"smiles": "COC(=O)C1CC2CCCC(C1)N2C(=O)c1ccc2c(C(F)(F)F)c(N[C@H]3CC[C@@H](C(F)(F)F)CC3)ccc2c1", "note": "(stereo partly drawn) [Example 244, methyl 9-(5-(trifluoromethyl)-6-((cis-4-(trifluoromethyl)cyclohexyl)amino)-2-naphthoyl)-9-azabicyclo[3.3.1]nonane-3-carboxylate]", "IC50": "≤ 100"},
      {"smiles": "O=C(O)C1CC2CCCC(C1)N2C(=O)c1ccc2c(C(F)(F)F)c(N[C@H]3CC[C@@H](C(F)(F)F)CC3)ccc2c1", "note": "(stereo partly drawn) [Example 245, 9-(5-(trifluoromethyl)-6-((cis-4-(trifluoromethyl)cyclohexyl)amino)-2-naphthoyl)-9-azabicyclo[3.3.1]nonane-3-carboxylic acid]", "IC50": "≤ 100"},
      {"smiles": "CC(C)(C)[C@H]1CC[C@H](Nc2ncc3cc(C(=O)N4C5CCC4CC(C(=O)O)C5)ccc3n2)CC1", "note": "(stereo partly drawn) [Example 262, 8-(2-((trans-4-(tert-butyl)cyclohexyl)amino)quinazoline-6-carbonyl)-8-azabicyclo[3.2.1]octane-3-carboxylic acid]", "IC50": "≤ 100"},
      {"smiles": "C[C@H]1CC[C@H](Nc2cc3ccc(C(=O)N4C5CCCC4CC(C(=O)O)C5)cc3cn2)CC1", "note": "(stereo partly drawn) [Example 263, 9-(3-((trans-4-methylcyclohexyl)amino)isoquinoline-7-carbonyl)-9-azabicyclo[3.3.1]nonane-3-carboxylic acid]", "IC50": "≤ 500"},
      {"smiles": "C[C@H]1CC[C@H](Nc2cc3ccc(C(=O)N4C5CCC4CC(C(=O)O)C5)cc3cn2)CC1", "note": "(stereo partly drawn) [Example 264, 8-(3-((trans-4-methylcyclohexyl)amino)isoquinoline-7-carbonyl)-8-azabicyclo[3.2.1]octane-3-carboxylic acid]", "IC50": "≤ 500"},
      {"smiles": "C[C@H]1CC[C@@H](Nc2ncc3cc(CN4C5CCCC4CC(C(=O)O)C5)ccc3c2Cl)CC1", "note": "(stereo partly drawn) [Example 271, 9-((4-chloro-3-((cis-4-methylcyclohexyl)amino)isoquinolin-7-yl)methyl)-9-azabicyclo[3.3.1]nonane-3-carboxylic acid]", "IC50": "≤ 500"},
      {"smiles": "CC(C)(C)[C@H]1CC[C@@H](Nc2ncc3cc(C(=O)N4C5CCC4CC(C(=O)O)C5)ccc3c2Cl)CC1", "note": "(stereo partly drawn) [Example 272, 8-(3-((cis-4-(tert-butyl)cyclohexyl)amino)-4-chloroisoquinoline-7-carbonyl)-8-azabicyclo[3.2.1]octane-3-carboxylic acid]", "IC50": "≤ 250"},
      {"smiles": "O=C(O)C1CC2CCCC(C1)N2Cc1cc2ccc(O[C@H]3CC[C@@H](C(F)(F)F)CC3)c(Br)c2cn1", "note": "(stereo partly drawn) [Example 274, 9-((8-bromo-7-((cis-4-(trifluoromethyl)cyclohexyl)oxy)isoquinolin-3-yl)methyl)-9-azabicyclo[3.3.1]nonane-3-carboxylic acid]", "IC50": "≤ 250"},
      {"smiles": "C[C@H]1CC[C@@H](Oc2ccc3cc(CN4C5CCCC4CC(C(=O)O)C5)ncc3c2Br)CC1", "note": "(stereo partly drawn) [Example 279, 9-((8-bromo-7-((cis-4-methylcyclohexyl)oxy)isoquinolin-3-yl)methyl)-9-azabicyclo[3.3.1]nonane-3-carboxylic acid]", "IC50": "≤ 500"},
      {"smiles": "CC[C@H]1CC[C@@H](Oc2ccc3nc(NC4C5CCC4CC(C(=O)O)C5)ccc3c2C(F)(F)F)CC1", "note": "(stereo partly drawn) [Example 280, 8-((6-((cis-4-ethylcyclohexyl)oxy)-5-(trifluoromethyl)quinolin-2-yl)amino)bicyclo[3.2.1]octane-3-carboxylic acid]", "IC50": "≤ 100"},
      {"smiles": "CC[C@H]1CC[C@@H](Oc2ccc3nc(NC4C5CCCC4CC(C(=O)O)C5)ccc3c2Cl)CC1", "note": "(stereo partly drawn) [Example 281, 9-((5-chloro-6-((cis-4-ethylcyclohexyl)oxy)quinolin-2-yl)amino)bicyclo[3.3.1]nonane-3-carboxylic acid]", "IC50": "≤ 100"}
    ]}
  ]
}
